Values joined by “and” are separate entries in the source; they are usually repeats but may differ in a detail not shown here. Identical values can stand only once. Inconclusive results and toxic doses are left out.
System: P388 leukemia ip, CD2F1 mice, survival T/C
Assay: NCI In Vivo Anticancer Drug Screen. Data for tumor model P388 Leukemia (intraperitoneal) in CD2F1 (CDF1) mice
Conditions: endpoint: median survival time, higher = longer survival
Summary of the method: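 Mice carrying the transplanted tumor received test compound or vehicle. Survival was recorded in each group, and the value is the treated-group measurement divided by that of the vehicle-treated control group.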

[1] = dose: 60.0 mg/kg/injection, schedule: Q01DX005 (ip), vehicle: Klucel (hydroxypropylcellulose) (HPC)
[2] = dose: 120.0 mg/kg/injection, schedule: Q01DX005 (ip), vehicle: Klucel (hydroxypropylcellulose) (HPC)
[3] = dose: 50.0 mg/kg/injection, schedule: Q01DX005 (ip), vehicle: saline with Tween-80
[4] = dose: 100.0 mg/kg/injection, schedule: Q01DX005 (ip), vehicle: saline with Tween-80
[5] = dose: 50.0 mg/kg/injection, schedule: Q01DX005 (ip), vehicle: Klucel (hydroxypropylcellulose) (HPC)
[6] = dose: 200.0 mg/kg/injection, schedule: Q01DX005 (ip), vehicle: saline with Tween-80
[7] = dose: 50.0 mg/kg/injection, schedule: Q01DX009 (ip), vehicle: saline with Tween-80
[8] = dose: 100.0 mg/kg/injection, schedule: Q01DX009 (ip), vehicle: saline with Tween-80
[9] = dose: 200.0 mg/kg/injection, schedule: Q01DX009 (ip), vehicle: saline with Tween-80
[10] = dose: 50.0 mg/kg/injection, schedule: Q01DX009 (ip), vehicle: Klucel (hydroxypropylcellulose) (HPC)
[11] = dose: 100.0 mg/kg/injection, schedule: Q01DX009 (ip), vehicle: Klucel (hydroxypropylcellulose) (HPC)
[12] = dose: 25.0 mg/kg/injection, schedule: Q01DX009 (ip), vehicle: Klucel (hydroxypropylcellulose) (HPC)

## CCCC[NH-].CCCC[NH-].[I][Pt+2][I]
dose: 0.78 mg/kg/injection, schedule: Q01DX009 (ip), vehicle: other
  T/C: 103 % of control and 120 % of control

## O=C1c2ccccc2C(=O)N1Cc1cccc(I)c1
[1]
  T/C: 97 % of control
[2]
  T/C: 94 % of control

## O=C(N/C(=C/c1ccc(Cl)cc1Cl)c1nc2ccccc2s1)c1ccccc1
[3]
  T/C: 109 % of control
[4]
  T/C: 111 % of control

## CC1CCCC2=C1C(O)c1c(N)cccc1C2O (centres undefined)
[5]
  T/C: 96 % of control
dose: 100.0 mg/kg/injection, schedule: Q01DX005 (ip), vehicle: Klucel (hydroxypropylcellulose) (HPC)
  T/C: 101 % of control
dose: 200.0 mg/kg/injection, schedule: Q01DX005 (ip), vehicle: Klucel (hydroxypropylcellulose) (HPC)
  T/C: 94 % of control

## C=C1CC(C2OCOC3COCOC32)OC1=O (centres undefined)
[1]
  T/C: 104 % of control
[2]
  T/C: 111 % of control

## C=C(C)C12OC1[C@@]1(C)C(=CC2=O)CCC(O)[C@@H]1C (some centres undefined)
dose: 20.0 mg/kg/injection, schedule: Q01DX005 (ip), vehicle: saline
  T/C: 101 % of control
dose: 40.0 mg/kg/injection, schedule: Q01DX005 (ip), vehicle: saline
  T/C: 104 % of control
dose: 80.0 mg/kg/injection, schedule: Q01DX005 (ip), vehicle: saline
  T/C: 100 % of control

## CC1=NN(C(=O)NS(=O)(=O)c2ccc(CCNC(=O)c3nccnc3N)cc2)C(C)(C)C1
[3]
  T/C: 102 % of control
[4]
  T/C: 105 % of control
[6]
  T/C: 102 % of control

## O=C1CSC(=S)N1C1CC1
[7]
  T/C: 95 % of control
[8]
  T/C: 86 % of control
[9]
  T/C: 87 % of control

## c1ccc2c(NCCCCCCCCNc3c4ccccc4nc4ccccc34)c3ccccc3nc2c1
dose: 0.62 mg/kg/injection, schedule: Q## X009 (ip), vehicle: lactic acid
  T/C: 121 % of control
dose: 0.63 mg/kg/injection, schedule: Q01DX009 (ip), vehicle: other
  T/C: 104 % of control and 114 % of control
dose: 1.25 mg/kg/injection, schedule: Q01DX009 (ip), vehicle: lactic acid
  T/C: 161 % of control
dose: 1.25 mg/kg/injection, schedule: Q01DX009 (ip), vehicle: saline
  T/C: 124 % of control
dose: 2.5 mg/kg/injection, schedule: Q01DX009 (ip), vehicle: lactic acid
  T/C: 159 % of control
dose: 2.5 mg/kg/injection, schedule: Q## X009 (ip), vehicle: lactic acid
  T/C: 154 % of control
dose: 10.0 mg/kg/injection, schedule: Q01DX009 (ip), vehicle: saline
  T/C: 153 % of control
dose: 40.0 mg/kg/injection, schedule: Q01DX009 (ip), vehicle: saline
  T/C: 90 % of control
dose: 80.0 mg/kg/injection, schedule: Q04DX003 (ip), vehicle: Klucel (hydroxypropylcellulose) (HPC)
  T/C: 88 % of control

## CC(=O)Nc1cc2c(cc1Br)-c1ccccc1C2O (centres undefined)
dose: 0.63 mg/kg/injection, schedule: Q01DX009 (ip), vehicle: saline with Tween-80
  T/C: 100 % of control
dose: 1.25 mg/kg/injection, schedule: Q01DX009 (ip), vehicle: saline with Tween-80
  T/C: 109 % of control
dose: 2.5 mg/kg/injection, schedule: Q01DX009 (ip), vehicle: saline with Tween-80
  T/C: 109 % of control
dose: 5.0 mg/kg/injection, schedule: Q04DX003 (ip), vehicle: saline with Tween-80
  T/C: 90 % of control
dose: 10.0 mg/kg/injection, schedule: Q04DX003 (ip), vehicle: saline with Tween-80
  T/C: 104 % of control
dose: 20.0 mg/kg/injection, schedule: Q01DX009 (ip), vehicle: saline with Tween-80
  T/C: 90 % of control
dose: 20.0 mg/kg/injection, schedule: Q04DX003 (ip), vehicle: saline with Tween-80
  T/C: 100 % of control

## C=C(Cl)CNc1ccccc1C(=O)O
dose: 25.0 mg/kg/injection, schedule: Q04DX003 (ip), vehicle: Klucel (hydroxypropylcellulose) (HPC)
  T/C: 109 % of control and 97 % of control
dose: 50.0 mg/kg/injection, schedule: Q04DX003 (ip), vehicle: Klucel (hydroxypropylcellulose) (HPC)
  T/C: 109 % of control and 110 % of control
dose: 100.0 mg/kg/injection, schedule: Q04DX003 (ip), vehicle: Klucel (hydroxypropylcellulose) (HPC)
  T/C: 103 % of control and 95 % of control
dose: 200.0 mg/kg/injection, schedule: Q04DX003 (ip), vehicle: Klucel (hydroxypropylcellulose) (HPC)
  T/C: 94 % of control

## COc1ccc(/C=c2\sc3nc(-c4ccccc4)nn3c2=O)cc1
[10]
  T/C: 98 % of control
[11]
  T/C: 98 % of control

## CCOC(=O)c1c[nH]c2ccc(N(CCCl)CCCl)cc12
dose: 5.33 mg/kg/injection, schedule: Q04DX003 (ip), vehicle: saline with Tween-80
  T/C: 160 % of control
dose: 6.25 mg/kg/injection, schedule: Q01DX009 (ip), vehicle: saline with Tween-80
  T/C: 150 % of control
dose: 8.0 mg/kg/injection, schedule: Q04DX003 (ip), vehicle: saline with Tween-80
  T/C: 160 % of control
dose: 12.0 mg/kg/injection, schedule: Q04DX003 (ip), vehicle: saline with Tween-80
  T/C: 170 % of control
dose: 12.5 mg/kg/injection, schedule: Q01DX009 (ip), vehicle: saline with Tween-80
  T/C: 181 % of control
dose: 18.0 mg/kg/injection, schedule: Q04DX003 (ip), vehicle: saline with Tween-80
  T/C: 185 % of control
dose: 25.0 mg/kg/injection, schedule: Q01DX009 (ip), vehicle: saline with Tween-80
  T/C: 109 % of control

## O=C([O-])CCNC1OC(CO)C(O)C(O)C1O.O=C([O-])CCNC1OC(CO)C(O)C(O)C1O.[Pd+2] (centres undefined)
dose: 50.0 mg/kg/injection, schedule: Q01DX005 (ip), vehicle: saline
  T/C: 99 % of control
dose: 100.0 mg/kg/injection, schedule: Q01DX005 (ip), vehicle: saline
  T/C: 102 % of control
dose: 200.0 mg/kg/injection, schedule: Q01DX005 (ip), vehicle: saline
  T/C: 99 % of control

## CC1(CCl)Nc2ccccc2C(=O)N1c1ccc(F)cc1 (centres undefined)
[7]
  T/C: 103 % of control
[8]
  T/C: 95 % of control
[9]
  T/C: 95 % of control

## CN(C)C1C(=O)C(C(N)=O)=C(O)C2(O)C(=O)C3=C(O)c4c(O)cccc4C(C)(O)C3CC12.O.O.O.[Al] (centres undefined)
[12]
  T/C: 95 % of control
[3]
  T/C: 99 % of control
[10]
  T/C: 92 % of control
[4]
  T/C: 99 % of control
[11]
  T/C: 103 % of control
[6]
  T/C: 99 % of control
dose: 200.0 mg/kg/injection, schedule: Q01DX009 (ip), vehicle: Klucel (hydroxypropylcellulose) (HPC)
  T/C: 106 % of control
dose: 400.0 mg/kg/injection, schedule: Q01DX009 (ip), vehicle: Klucel (hydroxypropylcellulose) (HPC)
  T/C: 107 % of control

## OC1CCC(C2C3CCCCC3C3CCCCC3C2C2CCC(O)CC2)CC1 (centres undefined)
[3]
  T/C: 99 % of control
[4]
  T/C: 99 % of control

## COc1cc2c3cc1Oc1c(OC)c(OC)cc4c1C(Cc1ccc(cc1)Oc1cc(ccc1O)CC3N(C)CC2)N(C)CC4 (centres undefined)
dose: 12.5 mg/kg/injection, schedule: Q01DX009 (ip), vehicle: Klucel (hydroxypropylcellulose) (HPC)
  T/C: 97 % of control
[12]
  T/C: 97 % of control
[10]
  T/C: 94 % of control
[11]
  T/C: 105 % of control

## Cc1cc(N/N=C/c2ccc3c(c2)OCO3)c2cc3c(cc2n1)OCO3
dose: 3.12 mg/kg/injection, schedule: Q01DX005 (ip), vehicle: Klucel (hydroxypropylcellulose) (HPC)
  T/C: 104 % of control
dose: 6.25 mg/kg/injection, schedule: Q01DX005 (ip), vehicle: Klucel (hydroxypropylcellulose) (HPC)
  T/C: 95 % of control
dose: 12.5 mg/kg/injection, schedule: Q01DX005 (ip), vehicle: Klucel (hydroxypropylcellulose) (HPC)
  T/C: 102 % of control and 95 % of control
dose: 25.0 mg/kg/injection, schedule: Q01DX005 (ip), vehicle: Klucel (hydroxypropylcellulose) (HPC)
  T/C: 107 % of control and 114 % of control
[5]
  T/C: 103 % of control

## CC(=O)Nc1ccc(OCCCN2CCOCC2)cc1
dose: 100.0 mg/kg/injection, schedule: Q04DX002 (ip), vehicle: Klucel (hydroxypropylcellulose) (HPC)
  T/C: 102 % of control
dose: 200.0 mg/kg/injection, schedule: Q04DX002 (ip), vehicle: Klucel (hydroxypropylcellulose) (HPC)
  T/C: 101 % of control
dose: 400.0 mg/kg/injection, schedule: Q04DX002 (ip), vehicle: Klucel (hydroxypropylcellulose) (HPC)
  T/C: 95 % of control

## Cc1ccccc1NC(=O)C(=O)C(C#N)c1c(Cl)cccc1Cl (centres undefined)
dose: 60.0 mg/kg/injection, schedule: Q01DX005 (ip), vehicle: saline with Tween-80
  T/C: 114 % of control
dose: 120.0 mg/kg/injection, schedule: Q01DX005 (ip), vehicle: saline with Tween-80
  T/C: 100 % of control
dose: 240.0 mg/kg/injection, schedule: Q01DX005 (ip), vehicle: saline with Tween-80
  T/C: 99 % of control
